Reference: US20230047208A1, “RNA Splicing Modulation” (The General Hospital Corporation, priority 2020, published 2023)

System: wildtype (WT) human fibroblast cell lines
Assay: Transcriptome-wide splicing by RNA sequencing (RNASeq), exon triplet PSI change;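 as to Effect: six WT fibroblast lines treated seven days versus DMSO vehicle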;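 as to T-PSI: T-PSI is average treated PSI after seven days of treatment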
Format: cell-based
Design: key to Effect: Exclusion; Inclusion; Unchanged
From the text: FIG. 2A provides a representation of an exon triplet. Exon U is upstream of Exon X, which is upstream of Exon D. R1, R2 and R3 represent RNA sequencing (RNASeq) reads spanning the regions between two adjacent exons. UI1, I1X, XI2 and I2D are four regions flanking the four splice sites of the exon-triplet. Each flanking region consists of 25 exonic base pairs and 75 intronic base pairs.
FIG. 2B provides a volcano plot showing the ψ (PSI: Percent Spliced-In) changes in splicing after treatment with Compound (I). Each dot represents one of the 161,097 expressed exon triplets in human fibroblasts. The x axis represents the ψ changes after treatment and the y axis represents the False Discovery Rate (FDR) (log 10 transformed). […] The horizontal dashed line indicates an FDR of 0.1. The dots on the right side of the right vertical dashed line and above the horizontal dashed line represent the exon-triplets with an increase for Exon X inclusion (Δψ≥0.1 and FDR<0.1) while the dots on left side of the left vertical dashed line and above the horizontal dashed line represent an increase for Exon X exclusion (Δψ≤−0.1 and FDR<0.1). Black dots in-between the two vertical dashed lines represent exon-triplets unchanged from the treatment.
In some aspects, analysis is performed on data derived from the assay to measure the magnitude of splicing to determine the amount of exons spliced into an mRNA transcript that is produced in the presence of Compound (I) relative to the amount in the absence of Compound (I) or presence of a negative control. In a preferred aspect, the method utilized is calculation of change in Percent Spliced In (ΔPSI). […] The ΔPSI value is derived from the formula: […]
The values for “a” and “b” represent the number of reads supporting the probability for potential inclusion or exclusion of an exon in an RNA transcript. The “a” value is derived from the number of reads within an exon triplet covering, in 5′ to 3′ order: the last few bases (>1 nucleotide) of an upstream exon operably linked to the first few bases (>1 nucleotide) of a middle exon. The “b” value is derived from the number of reads within an exon triplet covering, in 5′ to 3′ order: the last few bases (>1 nucleotide) of the middle exon operably linked to the first few bases (>1 nucleotide) of a downstream exon. The number of reads will indicate whether the splice junction of a middle exon has been identified as potentially having a CNN Motif(s) by the CNN Model described herein, wherein the inclusion or exclusion of the middle exon may be modulated in the presence of Compound (I) to produce one or more mature RNA isoforms from the gene transcript. The value for “c” represents the number of reads supporting the exclusion of the middle exon.
The effect on splicing modulation and corresponding splice differences toward exon inclusion or exclusion was determined by counting the RNASeq reads covering two splice junctions of exon triplets (three consecutive exons: Exon U, Exon X, Exon D) and the corresponding intervening introns, then comparing the change in Percent Spliced In (ΔPSI or Δψ) of the middle exon (Exon X) after treatment (as shown in FIG. 2A)^52,53. 934 exon triplets were identified showing differential middle exon inclusion or exclusion in response to Compound (I) treatment. Of these, 254 were exon inclusion events (Δψ≥0.1 and FDR<0.1) and 680 were exon exclusion events (Δψ≤−0.1 and FDR<0.1) (as shown in FIG. 2B). […] The splicing results were evaluated by RT-PCR in independent replicate experiments, confirming all the calculated Δψ values. […]

[1] = NUTM2A-AS1 Exon 89067714-89067817
[2] = ORMDL1 Exon 190647740-190647849
[3] = OSBPL8 Exon 76853639-76853675, Intron1 76844760-76853638
[4] = OSBPL8 Exon 76853639-76853675, Intron1 76844769-76853638
[5] = OSER1-AS1 Exon 42846007-42846322
[6] = PACRGL Exon 20711306-20711396, Intron1 20706438-20711305
[7] = PACRGL Exon 20711306-20711396, Intron1 20709494-20711305

Clc1nc(NCc2ccncc2)c2cc[nH]c2n1 [Compound (I), 2-chloro-N-(pyridin-4-ylmethyl)-7H-pyrrolo[2,3-d]pyrimidin-4-amine]
T-PSI (NUTF2 Exon 67881181-67881359): 0.104 | ΔPSI (NUTF2 Exon 67881181-67881359): −0.003 | Effect [1]: Exc | T-PSI [1]: 0.100 | ΔPSI [1]: −0.120 | Effect (OARD1 Exon 41036580-41036692): Exc | T-PSI (OARD1 Exon 41036580-41036692): 0.563 | ΔPSI (OARD1 Exon 41036580-41036692): −0.267 | Effect (OCRL Exon 128718321-128718344): Inc | T-PSI (OCRL Exon 128718321-128718344): 0.364 | ΔPSI (OCRL Exon 128718321-128718344): 0.260 | Effect (ODF2 Exon 131231462-131231632): Exc | T-PSI (ODF2 Exon 131231462-131231632): 0.872 | ΔPSI (ODF2 Exon 131231462-131231632): −0.102 | Effect (ODF2L Exon 86822127-86822285): Exc | T-PSI (ODF2L Exon 86822127-86822285): 0.514 | ΔPSI (ODF2L Exon 86822127-86822285): −0.272 | Effect (OFD1 Exon 13781864-13781974): Inc | T-PSI (OFD1 Exon 13781864-13781974): 0.981 | ΔPSI (OFD1 Exon 13781864-13781974): 0.131 | Effect (OPN3 Exon 241767722-241767881): Unc | T-PSI (OPN3 Exon 241767722-241767881): 0.437 | ΔPSI (OPN3 Exon 241767722-241767881): −0.004 | Effect (OPTN Exon 13150138-13150289): Inc | T-PSI (OPTN Exon 13150138-13150289): 0.387 | ΔPSI (OPTN Exon 13150138-13150289): 0.176 | Effect (OPTN Exon 13150962-13151015): Exc | T-PSI (OPTN Exon 13150962-13151015): 0.121 | ΔPSI (OPTN Exon 13150962-13151015): −0.220 | Effect [2]: Exc | T-PSI [2]: 0.407 | ΔPSI [2]: −0.295 | Effect (OS9 Exon 58113882-58114046): Exc | T-PSI (OS9 Exon 58113882-58114046): 0.344 | ΔPSI (OS9 Exon 58113882-58114046): −0.181 | Effect [3]: Inc | T-PSI [3]: 0.296 | ΔPSI [3]: 0.200 | Effect [4]: Inc | T-PSI [4]: 0.269 | ΔPSI [4]: 0.191 | Effect [5]: Unc | T-PSI [5]: 0.153 | ΔPSI [5]: 0.000 | Effect (P4HA2 Exon 131562390-131562914): Unc | T-PSI (P4HA2 Exon 131562390-131562914): 0.155 | ΔPSI (P4HA2 Exon 131562390-131562914): −0.007 | Effect (P4HA2 Exon 131562625-131562914): Unc | T-PSI (P4HA2 Exon 131562625-131562914): 0.160 | ΔPSI (P4HA2 Exon 131562625-131562914): −0.007 | Effect (PACRGL Exon 20709426-20709493): Exc | T-PSI (PACRGL Exon 20709426-20709493): 0.666 | ΔPSI (PACRGL Exon 20709426-20709493): −0.179 | Effect [6]: Exc | T-PSI [6]: 0.462 | ΔPSI [6]: −0.305 | Effect [7]: Exc | T-PSI [7]: 0.563 | ΔPSI [7]: −0.242 | Effect (PACRGL Exon 20726431-20726511): Exc | T-PSI (PACRGL Exon 20726431-20726511): 0.095 | ΔPSI (PACRGL Exon 20726431-20726511): −0.120 | Effect (PAM Exon 102309820-102310140): Exc | T-PSI (PAM Exon 102309820-102310140): 0.478 | ΔPSI (PAM Exon 102309820-102310140): −0.123 | Effect (PARD3 Exon 34625127-34625171): Unc | T-PSI (PARD3 Exon 34625127-34625171): 0.805 | ΔPSI (PARD3 Exon 34625127-34625171): −0.003 | Effect (PARD3 Exon 34739245-34739376): Exc | T-PSI (PARD3 Exon 34739245-34739376): 0.584 | ΔPSI (PARD3 Exon 34739245-34739376): −0.165 | Effect (PARL Exon 183551512-183551613): Exc | T-PSI (PARL Exon 183551512-183551613): 0.819 | ΔPSI (PARL Exon 183551512-183551613): −0.118 | Effect (PARP6 Exon 72543186-72543295): Inc | T-PSI (PARP6 Exon 72543186-72543295): 0.902
